A short description of data set [1]: Hemolytic activity in mouse RBC incubated for 1 hr. The class given is toxicity, cell-based, Erythrocyte. Particulars: red blood cells.
A short description of data set [2]: Hemolytic activity in human RBC. In kind it is toxicity, cell-based, Erythrocyte. To be noted: red blood cells.
The subject of data set [3] is Staphylococcus aureus. In words: Antimicrobial activity against Staphylococcus aureus ATCC 25923 assessed as reduction in microbial growth incubated for 18 to 20 hrs by Mueller-Hinton broth based microdilution method. In kind it is functional. Particulars: time 18-20 hrs.
A further data set deals with Enterococcus faecium. In words: Antimicrobial activity against Enterococcus faecium assessed as reduction in microbial growth incubated for 18 to 20 hrs by Mueller-Hinton broth based microdilution method. Particulars: time 18-20 hrs. The class given is functional.
Data set [4] deals with Escherichia coli. The data set is described as follows: Antibacterial activity against Escherichia coli ATCC 25922 assessed as bacterial growth inhibition incubate for 18 to 20 hrs by MH broth based assay. In kind it is functional. Particulars: time 18-20 hrs.
In data set [5] the test system is Staphylococcus aureus. The data set is described as follows: Antibacterial activity against Staphylococcus aureus ATCC 25923 assessed as reduction in bacterial growth incubated for 48 hrs by Mueller-Hinton broth based microdilution method. In kind it is functional.
The test system of data set [6] is Escherichia coli. The data set is described as follows: Antibacterial activity against Escherichia coli ATCC 25922 assessed as reduction in bacterial growth incubated for 48 hrs by Mueller-Hinton broth based microdilution method. The class given is functional. In general terms: Broth dilution looks for growth in wells or tubes with falling amounts of substance.

Data set [7] can be described thus: Hemolytic activity in human erythrocyte incubated for 1 hr. In kind it is toxicity, cell-based. Particulars: erythrocytes.
The test system of data set [8] is Mycolicibacterium smegmatis. The data set is described as follows: Antimycobacterial activity against Mycobacterium smegmatis mc2 155 assessed as reduction in bacterial cell growth incubated for 48 hrs by resazurin dye based assay. In kind it is functional. (The colour change of resazurin is a common sign of viable cells or microbes.)
For the next data set, the system named is Bacillus subtilis. The data set is described as follows: Antibacterial activity against Bacillus subtilis assessed as reduction in bacterial growth. The class given is functional.
For data set [9], the system named is Escherichia coli. In words: Antibacterial activity against Escherichia coli DH5a assessed as reduction in bacterial growth. In kind it is functional.
Another data set has as its system Pseudomonas aeruginosa. The data set is described as follows: Antibacterial activity against Pseudomonas aeruginosa PAO1 assessed as reduction in bacterial growth. In kind it is functional.
In the next data set the test system is Zymomonas mobilis. In words: Antibacterial activity against Zymomonas mobilis ATCC 10988 assessed as reduction in bacterial growth. In kind it is functional.
The nature of data set [10]: Hemolytic activity in human erythrocytes. The class given is toxicity, cell-based, Erythrocyte.

SMILES strings stand for the structures. In brackets after ≈: the same amount, converted by molar mass. Square brackets hold non-standard residues; d marks the D form. Peptide text beside a SMILES is read from it. * marks the point of attachment. Heptadecanoyl = CCCCCCCCCCCCCCCCC(=O)*; Tridecanoyl = CCCCCCCCCCCCC(=O)*; hIle = CC[C@H](C)C[C@H](N)C(=O)O; Cha = N[C@@H](CC1CCCCC1)C(=O)O; Nonanoyl = CCCCCCCCC(=O)* Some results are limits rather than exact numbers.

Among the data in ChEMBL document CHEMBL5608163, “Structure modification of anoplin for fighting resistant bacteria” (Eur J Med Chem, 2024) are HC50 and MIC values, retold here.

Turning to `CC[C@H](C)C[C@H](NC(=O)[C@H](CCCNC(=N)N)NC(=O)[C@H](CCCCN)NC(=O)[C@H](CC(C)C)NC(=O)[C@H](CC1CCCCC1)NC(=O)CN)C(=O)N[C@@H](CCCCN)C(=O)N[C@H](C(=O)N[C@@H](CC(C)C)C(=O)N[C@@H](CC1CCCCC1)C(N)=O)[C@@H](C)O` (H-G[Cha]LKR[hIle]KTL[Cha]-NH2), the HC50 at 1 h in data set [1] is 31.2 µM. In addition, the HC50 in data set [2] was determined as 31.2 µM. The MIC was 5.3 µM in the data set on Staphylococcus aureus [3], 3.2 µM in the data set with Enterococcus faecium and 6.25 µM (≈ 7.8 µg/mL) with Escherichia coli [4].
Turning to `CCCCCCCCCCCCCCCCC(=O)NCC(=O)N[C@@H](CC(C)C)C(=O)N[C@@H](CC(C)C)C(=O)N[C@@H](CCCCN)C(=O)N[C@@H](CCCNC(=N)N)C(N)=O` (Heptadecanoyl-GLLKR-NH2), the MIC was determined as 3.94 µM (≈ 3.3 µg/mL) in the data set on Staphylococcus aureus [5] and 7.88 µM (≈ 6.6 µg/mL) with Escherichia coli [6]. The HC50 at 1 h in [7] came to 80.2 µM.
The like results for `CCCCCCCCCCCCCCCCC(=O)NCC(=O)N[C@@H](CC(C)C)C(=O)N[C@@H](CC(C)C)C(=O)N[C@@H](CCCCN)C(=O)N[C@@H](CCCNC(=N)N)C(=O)N[C@H](C(N)=O)[C@@H](C)CC` (Heptadecanoyl-GLLKRI-NH2) were, in that order, 0.66 µM (≈ 0.627 µg/mL), 3.47 µM (≈ 3.3 µg/mL) and 8.01 µM.
`CCCCCCCCCCCCCCCCC(=O)NCC(=O)N[C@@H](CC(C)C)C(=O)N[C@@H](CC(C)C)C(=O)N[C@@H](CCCCN)C(=O)N[C@@H](CCCNC(=N)N)C(=O)N[C@H](C(=O)N[C@@H](CCCCN)C(N)=O)[C@@H](C)CC` (Heptadecanoyl-GLLKRIK-NH2): the MIC was determined as 0.76 µM (≈ 0.82 µg/mL) with Staphylococcus aureus [5] and 1.53 µM (≈ 1.65 µg/mL) in the data set on Escherichia coli [6]. The same compound returned an HC50 at 1 h in [7] of 35.4 µM.
`CCCCCCCCCCCCCCCCC(=O)NCC(=O)N[C@@H](CC(C)C)C(=O)N[C@@H](CC(C)C)C(=O)N[C@@H](CCCCN)C(=O)N[C@@H](CCCNC(=N)N)C(=O)N[C@H](C(=O)N[C@@H](CCCCN)C(=O)N[C@H](C(N)=O)[C@@H](C)O)[C@@H](C)CC` (Heptadecanoyl-GLLKRIKT-NH2): the values for the MIC in the data set on Staphylococcus aureus [5] and in the data set on Escherichia coli [6] were 1.4 µM (≈ 1.65 µg/mL) and 2.8 µM (≈ 3.3 µg/mL), respectively. The compound further yielded an HC50 at 1 h in [7] of 29 µM.
The like results for `CCCCCCCCCCCCCCCCC(=O)NCC(=O)N[C@@H](CC(C)C)C(=O)N[C@@H](CC(C)C)C(=O)N[C@@H](CCCCN)C(=O)N[C@@H](CCCNC(=N)N)C(=O)N[C@H](C(=O)N[C@@H](CCCCN)C(=O)N[C@H](C(=O)N[C@@H](CC(C)C)C(=O)N[C@@H](CC(C)C)C(=O)O)[C@@H](C)O)[C@@H](C)CC` (Heptadecanoyl-GLLKRIKTLL-OH) were, in that order, 0.32 µM (≈ 0.45 µg/mL), 0.32 µM (≈ 0.45 µg/mL) and 14.8 µM.
Consider `CCCCCCCCC(=O)NCC(=O)N[C@@H](CC(C)C)C(=O)N[C@@H](CC(C)C)C(=O)N[C@@H](CCCCN)C(=O)N[C@@H](Cc1ccccc1)C(=O)N[C@H](C(=O)N[C@@H](CCCCN)C(=O)N[C@@H](CCCCN)C(=O)N[C@@H](CC(C)C)C(=O)N[C@@H](CC(C)C)C(N)=O)[C@@H](C)CC` (Nonanoyl-GLLKFIKKLL-NH2), for which the MIC in data set [8] came to 3.86 µM (≈ 5.06 µg/mL); in the data set on Bacillus subtilis it was 8 µM (≈ 10.5 µg/mL); with Escherichia coli [9], 23.1 µM (≈ 30.3 µg/mL); in the data set with Pseudomonas aeruginosa, 3.86 µM (≈ 5.06 µg/mL); with Zymomonas mobilis it was 3.86 µM (≈ 5.06 µg/mL). In data set [10], this compound showed an HC50 of under 386 µM.
Turning to `CCCCCCCCCCCCC(=O)NCC(=O)N[C@@H](CC(C)C)C(=O)N[C@@H](CC(C)C)C(=O)N[C@@H](CCCCN)C(=O)N[C@@H](Cc1ccccc1)C(=O)N[C@H](C(=O)N[C@@H](CCCCN)C(=O)N[C@@H](CCCCN)C(=O)N[C@@H](CC(C)C)C(=O)N[C@@H](CC(C)C)C(N)=O)[C@@H](C)CC` (Tridecanoyl-GLLKFIKKLL-NH2), the MIC was determined as 3.69 µM (≈ 5.05 µg/mL) in data set [8]; 8 µM (≈ 10.9 µg/mL) in the data set with Bacillus subtilis; 22.1 µM (≈ 30.3 µg/mL) in the data set on Escherichia coli [9]; 3.69 µM (≈ 5.05 µg/mL) with Pseudomonas aeruginosa; 22.1 µM (≈ 30.3 µg/mL) in the data set with Zymomonas mobilis. The compound also came in with an HC50 in data set [10] of under 370 µM.

A word on the HC50: it is the concentration that lyses half of the red blood cells. A high value points to less damage to red cells. Broadly, the MIC is the lowest concentration found to suppress growth.
